In publication PMC11172257 (Emerging Microbes & Infections, 2024):
In brackets after ≈: the same amount, converted by molar mass.

tested on: K. pneumonia HSD; test: microbe, parasite or virus in culture; design: species or system bacterial strains; conditions: not given

MIC (μg/mL)^a / K. pneumonia HSD [µg/mL]	SMILES
128 (≈ 266 µM)	CO/N=C(\C(=O)N[C@@H]1C(=O)N2C(C(=O)[O-])=C(C[N+]3(C)CCCC3)CS[C@H]12)c1csc(N)n1 [Cefepime]

same assay, conditions: Klebsiella pneumoniae, read-out: MIC (μg/mL)^a / K. pneumonia HSD

SMILES	MIC [µg/mL]
NCC[C@H](O)C(=O)N[C@@H]1C[C@H](N)[C@@H](O[C@H]2O[C@H](CN)[C@@H](O)[C@H](O)[C@H]2O)[C@H](O)[C@H]1O[C@H]1O[C@H](CO)[C@@H](O)[C@H](N)[C@H]1O [Amikacin]	> 128
CC1(C)S[C@@H]2[C@H](NC(=O)[C@H](N)c3ccc(O)cc3)C(=O)N2[C@H]1C(=O)O [Amoxicillin]	> 32

More lines, now with the values ahead:

MIC [µg/mL]	SMILES
32 (≈ 67.3 µM)	C[C@@H](O)[C@H]1C(=O)N2C(C(=O)O)=C(S[C@@H]3CN[C@H](C(=O)Nc4cccc(C(=O)O)c4)C3)[C@H](C)[C@H]12 [Ertapenem]
4 (≈ 10.4 µM)	C[C@@H](O)[C@H]1C(=O)N2C(C(=O)O)=C(S[C@@H]3CN[C@H](C(=O)N(C)C)C3)[C@H](C)[C@H]12 [Meropenem]
> 128	CC(C)(O/N=C(\C(=O)N[C@@H]1C(=O)N2C(C(=O)[O-])=C(C[n+]3ccccc3)CS[C@H]12)c1csc(N)n1)C(=O)O [ceftazidime]
